According to patent US5929039A, “Method for treating cardiac dysfunction and pharmaceutical compositions useful therefor” (Baker Medical Research Institute, priority 1993, dated 1999):
Where two headings read alike, the source gives them in different places. One block for each molecule: values may come before it.

Tests used:
[1] = system: inositol phosphate accumulation in heart tissue; assay: Inositol phosphate accumulation in healthy (normoxic) heart tissue; parameters: species or system rat; settings: healthy heart tissue
Experimental: (§1) Adult male sprague dawley rats 250-300 g were used. Where indicated, rats were treated with reserpine (5 mg/kg I.P. for 18 hrs prior to killing) to deplete endogenous noradrenaline stores.. Rats were heparinized 1 U/g I.P. 30 minutes prior to killing by decapitation. Hearts were rapidly excised and immediately chilled in ice-cold saline. Under ice-cold solution, hearts were cannulated via the ascending aorta as described by Langendorff and perfused retrogradely at a rate of 5 ml/min with HEPES-buffered Krebs solution equilibrated with 5%CO2 -95%O2 at 37° C. Initial perfusion was in a non-recirculating manner to remove internal blood. Hearts were allowed to warm up gradually and, when free of internal blood, transferred to a 37° C. water-jacketed organ bath containing carbogenated Krebs medium, and perfusion continued in a recirculating manner. Following a 15 minute equilibration period, hearts were labelled with [^3 H]-inositol, 2 μCi/ml for 2 h. Hearts were monitored throughout the labelling period for strong rhythmic beating.
(§2) Inositol phosphates were extracted from ventricle samples in 3.5 ml ice-cold 5% trichloroacetic acid (TCA), 2.5 mM EDTA, 5 mM phytate solution, as described previously (21). Briefly, ventricles were homogenised with two 10 second passes of a "Polytron" homogenizer separated by 15 second periods on ice. Samples were homogenised further using a Potter-Elvejheim homogeniser followed by brief sonication. Homogenised samples were centrifuged (5000 rpm, 10 min, 4° C.) to remove TCA insoluble material. Supernatants were collected, and the remaining pellet re-extracted in 1.5 ml TCA, EDTA, phytate. Supernatants were pooled and freon, tri-n-ocylamine (1:1 v/v 0.75 ml:1 ml TCA solution) was added, mixed thoroughly, and phases separated by low speed centrifugation (2000 rpm, 10 min 4° C.). The resultant aqueous phase, containing inositol phosphates was collected and treated with proteinase K (50 μg/ml, 2 hr, 50° C.). This process was necessary to preserve the chromatography column. Treated samples were passed through a 1 ml Dowex-50 column (4% cross-linked 4-400 mesh size) and eluted with 1 ml water (22). Urea (0.05 M final) was added (23) and samples lyophilized prior to high performance liquid chromatography (HPLC) analysis. Recovery of inositol phosphates using this method was greater than 95% for each isomer, as estimated by addition of [^3 H]-labelled standards to extractions of unlabelled hearts.
(§3) Inositol phosphates were separated by an anion-exchange HPLC system using a Whatman Partisil 10μ SAX column in a Waters Radial Compression Unit, employing a complex ammonium phosphate gradient, pH 3.8 from 0-2 M as described previously (24). Inositol phosphates were detected and quantitated using an on-line […] (model CR, Radiomatic Instruments) All peaks were identified by comparison with commercial standards. Nucleotide standards AMP, ADP, and ATP were run with samples to assess column performance.

PI-PLC kidney me = settings: membrane enzyme; from the literature (35); cited from earlier work
[2] = system: [3H]-labelled inositol phosphate accumulation; assay: [3H]-labelled inositol phosphate accumulation in isolated perfused rat hearts under ischaemia and post-ischaemic reperfusion; settings: for average inhibition of [3H]-labelled inositol phosphate accumulation: vs 2 min post-ischaemic reperfusion without neomycin
Experimental: as §1
(§4) Following labelling, the [^3 H]-inositol-containing medium was removed, and replaced with Krebs medium containing propranolol (10^-6 M) and lithium chloride (50 mM) to block β-adrenergic receptors and to inhibit InsP metabolism by InsP 1'-phosphatase respectively (20). Hearts were perfused with propranolol, LiCi solution for 10 minutes prior to ischaemia. Antagonists, when administered, were included in this 10 minute preincubation. Normothermic global ischaemia was induced by terminating perfusion for various times up to 30 minutes. Reperfusion was examined following a 20 minute ischaemic period by resuming perfusion at 5 ml/min. Reactions were terminated by freezing hearts in liquid N2 following excision at the atrioventricular junction. Frozen ventricles were weighed and inositol phosphates extracted as described below.
as §2, §3
(§5) Values presented are mean ±SEM, for n=4 unless otherwise stated. Statistical analysis of results involved Students' unpaired "t-test" for all InsP data.

PI-PLC heart rep = assay: Inhibition of PI-PLC in hearts under reperfusion conditions; parameters: species or system rat
Experimental: as §1, §4
Mass of Ins(1,4,5)P3 was measured using a competitive binding assay (Amersham TRK 1000) essentially as described previously (26). […]

PI-PLC kidney cy = settings: cytosolic enzyme; from the literature (35); cited from earlier work
Ins(1,4,5)P3 release [3] = assay: Ins(1,4,5)P3 mass in isolated perfused rat hearts, 2 min reperfusion after 20 min global ischaemia (competitive binding assay); settings: for Ins(1,4,5)P3 mass: control 200 ± 18
Experimental: as §1, §4, §2
Mass of Ins(1,4,5)P3 was measured using a competitive binding assay (Amersham TRK 1000) essentially as described previously (26). Ventricle samples were prepared as described above except for the omission of [^3 H]-label during the 2 hr perfusion of hearts prior to ischaemia, and for the use of 5 mm ATP instead of phytate in the extraction procedure.
Protein concentration was determined in aliquots of TCA pellet following InsP extraction using a modified Lowry method with Bovine Serum Albumin as a standard.
as §5

[4] = system: in situ perfused rat hearts; settings: for Reperfusion-induced arrhythmias VF % incidence / Reperfusion-induced arrhythmias VT % incidence: control 83
Experimental: (§6) A model of in situ perfused rat hearts subjected to 20 minutes coronary artery occlusion to induce ischaemia, followed by reperfusion was used to investigate reperfusion-induced arrhythmias.
(§7) Rats (250-300 g) were anaesthetised (pentobarbitone 60 mg/kg, I.P.) and heparinised (200 U/rat I.V.) The thorax was then opened and a metal cannula (ID 1 mm) inserted and tied into the ascending aorta, to commence Langendorff perfusion in situ (31). The interval from opening the chest to commencing heart perfusion was between 50 and 70 seconds. The perfusate was Krebs buffer, with coronary flow controlled by a Ismatac peristaltic pump at a rate of 5 ml/g heart weight/min for the non-ischaemic perfusion. At this flow rate the coronary perfusion pressure was between 32-38 mmHg, measured by pressure transducer (Gould Statham model p23) connected to the sidearm of the perfusion line. Following aortic cancellation, pulmonary vessels were tied off. In some preparations, ventricular pressure was measured by inserting a Millar micro-tip transducer catheter into the left ventricular cavity via the apex. All parameters--coronary perfusion pressure, ventricular pressure, and epicardial ECG, were constantly recorded on a Grass model 7 polygraph. Two hearts were perfused and simultaneously studied.
(§8) A silk suture (4.0) was positioned loosely around the left coronary artery 2-3 mm from its origin. Two silk releasing rings were placed around the suture for subsequent release of occlusion. Successful occlusion of the artery, inducing regional ischaemia, was indicated by increases in coronary perfusion pressure of at least 30%. Perfusion pressure was adjusted to non-ischaemic perfusion levels during the ischaemic period.
(§9) Drugs were added to the perfusion via a Harvard Model 22 pump. The drug flow was less than 1% of perfusion flow to ensure constant perfusate parameters. Unless mentioned otherwise, the drugs were present 10 minutes before, and during the entire ischaemic and reperfusion periods.
(§10) Heart preparations were allowed to stabilise for at least 20 minutes prior to commencing studies. Following 10 minute drug incubation, the left coronary artery was ligated to induce local ischaemia, for a period of 20 minutes. At the end of this ischaemic period, the ligature was released and hearts perfused at pre-ischaemic flow for a period of 5 minutes. Ventricular arrhythmias, occurring during ischaemia or during the first 2 minutes of reperfusion were defined according to the Lambeth Conventions (32).
Incidence of arrhythmias was analysed using a .chi.^2 test, with n≥8 for each group.

Ins(1,4,5)P3 release [5] = assay: Thrombin-stimulated release of Ins(1,4,5)P3 in heart tissue
[6] = system: hearts from reserpinized rats; assay: Arrhythmic effect of thrombin under reperfusion conditions, perfused hearts from reserpinized rats; parameters: species or system rat; settings: for VF% / VT%: n 9
Experimental: as §6, §7, §8, §9, §10
The finding that thrombin directly stimulated release of Ins(1,4,5)P3 in heart indicates the possibility that thrombin might cause arrhythmias directly via this mechanism. Experiments were performed using hearts from reserpinized rats so that arrhythmic events initiated by noradrenaline were eliminated. Reperfusion arrhythmias were not observed in hearts from reserpinized animals. […] Furthermore, these arrhythmias were inhibited by gentamicin, indicating a relationship to release of Ins(1,4,5)P3 (Table 2).

[7] = 0.5 mM, 2 min reperfusion after 20 min global ischaemia
[8] = 5 mM, 2 min reperfusion after 20 min global ischaemia
[9] = 25 μg/kg I.P. 48 h prior to experimentation
[10] = thrombin 2 U/ml in perfusate, reserpinized hearts
[11] = hearts from reserpinized rats, no thrombin

Molecule: neomycin
effect on accumulations of Inositol phosphate1 and Inositol phosphate2 ([1]; 5 mM): without effect | reduction in accumulation of [3H]Ins(1,4,5)P3 ([1]; 5 mM): 20% | effect on inositol phosphate accumulation ([1]; concentrations lower than 5 mM): ineffective | EC50 (PI-PLC kidney me): 200 µM | inhibition of accumulation of [3H]-labelled inositol phosphates ([2]; 0.05 mM, added 10 min prior to ischaemia, 2 min reperfusion): did not significantly inhibit | average inhibition of [3H]-labelled inositol phosphate accumulation ([2]; 0.5 mM): 45% | average inhibition of [3H]-labelled inositol phosphate accumulation ([2]; 5 mM): 55% | increase in sensitivity of myocardial tissue to neomycin during post-ischaemic reperfusion ([2]; reperfusion vs healthy heart): more than 10 fold | EC50 (PI-PLC heart rep): 400 µM | EC50 (PI-PLC kidney cy): 30 µM | Ins(1,4,5)P3 mass (Ins(1,4,5)P3 release [3]; 0.05 mM, 2 min reperfusion after 20 min global ischaemia, mean±SEM, 4 hearts): 184 ± 7 pmol/mg protein | Ins(1,4,5)P3 mass (Ins(1,4,5)P3 release [3]; [7]): 121 ± 11 pmol/mg protein | Ins(1,4,5)P3 mass (Ins(1,4,5)P3 release [3]; [8]): 104 ± 12 pmol/mg protein | rats showing both severe VT and VF throughout reperfusion ([4]; 0.05 mM): 6 out of 8 | Reperfusion-induced arrhythmias VF % incidence ([4]; 0.05 mM): 70% | Reperfusion-induced arrhythmias VT % incidence ([4]; 0.05 mM): 75% | rats exhibiting VT or VF on reperfusion ([4]; 0.5 mM): none of the 10 rats | heart rate and ventricular pressure ([4]; 0.5 mM, after 10 minute incubation prior to occlusion): not significantly differing from control | Reperfusion-induced arrhythmias VF % incidence ([4]; 0.5 mM): 0% | Reperfusion-induced arrhythmias VT % incidence ([4]; 0.5 mM): 0% | Reperfusion-induced arrhythmias VF % incidence ([4]; 5 mM): 0% | Reperfusion-induced arrhythmias VT % incidence ([4]; 5 mM): 0%

Molecule: Pertussis toxin [PTX]
Ins(1,4,5)P3 mass (Ins(1,4,5)P3 release [3]; [9]): 128 ± 28 pmol/mg protein | Reperfusion-induced arrhythmias VF % incidence [4, 9]: 10% | Reperfusion-induced arrhythmias VT % incidence [4, 9]: 40%

Molecule: NC[C@H](O)c1ccc(O)c(O)c1 [noradrenaline]
release of [3H]-labelled Ins(1,4,5)P3 on reperfusion ([2]; 10^-4 M perfusion, reserpinized animals): reinstated

inhibition of reperfusion-induced Ins(1,4,5)P3 release (Ins(1,4,5)P3 release [3]): inhibitory | Ins(1,4,5)P3 mass (Ins(1,4,5)P3 release [3]; [7]): 182 + 4 pmol/mg protein | Ins(1,4,5)P3 mass (Ins(1,4,5)P3 release [3]; [8]): 160 ± 9 pmol/mg protein
Molecule: NCCCNCCCCNCCCN [spermine]
effect on reperfusion arrhythmias [4]: inhibited | Reperfusion-induced arrhythmias VF % incidence ([4]; 0.5 mM): 36% | Reperfusion-induced arrhythmias VT % incidence ([4]; 0.5 mM): 63% | Reperfusion-induced arrhythmias VF % incidence ([4]; 5 mM): 20% | Reperfusion-induced arrhythmias VT % incidence ([4]; 5 mM): 30%

Molecule: CN[C@@H]1C[C@H]2O[C@@](C)([C@@H]1OC)n1c3ccccc3c3c4c(c5c6ccccc6n2c5c31)C(=O)NC4 [staurosporine]
percentage incidence of reperfusion-induced arrhythmias vs untreated controls ([4]; 10^-7 M): did not significantly alter | Reperfusion-induced arrhythmias VF % incidence ([4]; .1 μM): 69% | Reperfusion-induced arrhythmias VT % incidence ([4]; .1 μM): 83%

Molecule: thrombin
release of Ins(1,4,5)P3 in heart tissue (Ins(1,4,5)P3 release [5]): directly stimulates release | reperfusion arrhythmias ([6]; thrombin 2 U/ml added to perfusate, reserpinized hearts): high incidence | VF% [6, 10]: 67% | VT% [6, 10]: 89%

Molecule: COc1cc2nc(N3CCN(C(=O)c4ccco4)CC3)nc(N)c2cc1OC [prazosin]
2 minute reperfusion inositol phosphate response ([2]; 10 μM): inhibited | redistribution of [3H]-labelled inositol phosphates under ischaemic conditions ([2]; global ischaemia, α1 adrenoceptor blockade): unaffected

Molecule: COC(=O)[C@H]1[C@H]2C[C@@H]3c4[nH]c5cc(OC)ccc5c4CCN3C[C@H]2C[C@@H](OC(=O)c2cc(OC)c(OC)c(OC)c2)[C@@H]1OC [reserpine]
rapid accumulation of inositol phosphates at 2 minutes post-ischaemic reperfusion ([2]; prior reserpine treatment (5 mg/kg I.P. 18 hrs)): prevented | VF% [6, 11]: 0% | VT% [6, 11]: 44%
